Experimental data from US20180312493A1, “Antibiotic Compounds, Pharmaceutical Formulations Thereof And Methods And Uses Therefor” (Simon Fraser University, priority 2015, published 2018).
Converted amounts (≈) assume the structure as drawn. Structures can show the parent of a compound that is named as a salt. Where two headings read alike, the source gives them in different places.

Tests used:
[1] = tested on: A. baumannii (ATCC 19606); assay: In vitro susceptibility, broth microdilution (MIC); format: cell-based; details: Acinetobacter baumannii
Description: (§1) Epidemic methicillin resistant S. aureus (MRSA) strain sequenced at the Sanger Centre (MRSA252, NRS71) was obtained from NARSA (Network on Antimicrobial Resistance in S. aureus). Methicillin sensitive S. aureus (ATCC 29213 and 25923), methicillin resistant S. aureus (ATCC BAA-1762), and Salmonella typhimurium (ATCC BAA-185) were obtained from ATCC, The Global Bioresource Center. Acinetobacter baumannii (ATCC 19606 and ATCC 17978), Klebsiella pneumonia (C238), vancomycin resistant Enterococci #2 (2010A) (VRE#2), MRSA (USA400, MW2) and Pseudomonas aeruginosa (PA0-1) were obtained from the laboratory of Dr B. B. Finlay at the University of British Columbia (Vancouver, Canada).
(§2) The antimicrobial activities of PK inhibitor candidates were determined using the 96-well microtiter standard 2-fold serial broth microdilution method as described by CLSI (formerly NCCLS) with the various gram-positive and gram-negative bacteria species mentioned above. Bacteria from a single colony were grown, overnight in either BHI Broth (VRE), mueller hinton broth (S. aureus 29213; MRSA USA400, A. baumannii 19606, MRSA BAA-1762) or L-broth (P. aeruginosa, S. typhimurium, K. pneumonia and A. baumannii 17978). Each compound was prepared in DMSO with 2-fold serial dilutions to give a final concentration of, 0.031 to 64 μg/ml. 10 μl of the compound solution was then added, in duplicate, to either, 190 μl of cation adjusted mueller hinton broth (CAMHB) or 190 μl CAMHB containing ˜2.5×10^5 CFU/ml of bacteria (final compound concentration 0.031 to 64 μg/ml). Culture plates were incubated for 18-24 h at 37° C., and optical density at 600 nm (OD600) was measured using a Benchmark Plus™ microplate spectrophotometer (Bio-Rad™). The absorbance control values for the series containing CAMHB and inhibitor were subtracted as background from the corresponding infected wells. Minimal inhibitory concentration (MIC) was defined as the lowest concentration of test compound leading to complete inhibition of cell growth in relation to compound-free control wells as determined by optical density. Vancomycin, methicillin and ciprofloxicin were used as reference compounds. All assays were run in triplicate or duplicate. Experiments were replicated at least twice to verify reproducibility using the above conditions.

MRSA (ATCC BAA-1762) = assay: In vitro susceptibility, broth microdilution (MIC); format: cell-based, methicillin resistant S. aureus; details: Staphylococcus aureus, read-out: Antimicrobial activity (MIC) MRSA ATCC BAA1762
Description: as §1, §2

VRE#2 (2010A) = assay: In vitro susceptibility, broth microdilution (MIC); format: cell-based, vancomycin resistant Enterococci; details: read-out: Antimicrobial activity (MIC) VRE#2
Description: as §1, §2

MRSA Pyk = target: T1, MRSA Pyk (Staphylococcus aureus, UniProt Q6GG09); assay: MRSA pyruvate kinase (PK) activity, continuous LDH-coupled assay; format: biochemical, methicillin resistant S. aureus (MRSA252)
T1 construct: made in house; host or cells: E. coli BL-21 (DE3)
Summary of the method: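 Activity monitored continuously as absorbance change at 340 nm from NADH oxidation via coupled lactate dehydrogenase, reactions started with 15 nM recombinant His-tagged PK (MRSA or human isoform) and run at 30° C for up to 5 min. Ki derived by varying inhibitor (0-400 nM) and PEP (2-20 mM) at 2 mM ADP; IC50 by four-parameter fitting.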

S. aureus (ATCC29213) = assay: In vitro susceptibility, broth microdilution (MIC); format: cell-based; details: Staphylococcus aureus
Summary of the method: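 CLSI 2-fold serial broth microdilution; K. pneumoniae C238 grown in L-broth, S. aureus ATCC 29213 in Mueller Hinton broth, plates incubated 18–24 h at 37 °C. MIC taken as lowest concentration giving complete growth inhibition by OD600 versus compound-free wells, background-subtracted.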

[2] = ATCC19606, A. baumannii ATCC 19606 (values without asterisk), read-out: Antimicrobial activity (MIC) A. baumannii
[3] = S. aureus ATCC29213, 18-24 h, 37 C, read-out: Antimicrobial activity (MIC) S. aureus ATCC29213

T1 sequence (Q6GG09 whole entry): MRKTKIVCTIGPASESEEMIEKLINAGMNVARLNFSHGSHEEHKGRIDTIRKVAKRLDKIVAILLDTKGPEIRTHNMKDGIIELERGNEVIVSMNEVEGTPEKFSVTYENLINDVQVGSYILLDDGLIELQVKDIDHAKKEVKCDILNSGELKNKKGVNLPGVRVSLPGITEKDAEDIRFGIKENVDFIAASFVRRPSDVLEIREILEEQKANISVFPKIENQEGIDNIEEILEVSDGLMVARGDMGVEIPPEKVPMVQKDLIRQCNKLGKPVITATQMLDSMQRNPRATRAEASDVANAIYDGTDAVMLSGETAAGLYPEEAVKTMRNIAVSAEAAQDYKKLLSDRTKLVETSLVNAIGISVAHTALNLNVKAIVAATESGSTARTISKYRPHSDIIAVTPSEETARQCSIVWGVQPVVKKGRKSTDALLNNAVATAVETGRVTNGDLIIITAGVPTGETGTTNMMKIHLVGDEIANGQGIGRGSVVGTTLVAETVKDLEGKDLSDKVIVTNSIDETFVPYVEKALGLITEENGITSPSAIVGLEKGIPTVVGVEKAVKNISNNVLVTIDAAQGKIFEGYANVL

Structure (SMILES) | MIC [1, 2] [µg/mL] | MIC (MRSA (ATCC BAA-1762); MRSA ATCC BAA-1762) [µg/mL] | MIC (VRE#2 (2010A); VRE#2 (2010A)) [µg/mL] | IC50 (MRSA Pyk) [nM] | MIC (S. aureus (ATCC29213); [3]) [µg/mL] | MIC ([1]; ATCC19606, read-out: Antimicrobial activity (MIC) A. baumannii) [µg/mL] | MIC (MRSA (ATCC BAA-1762)) [µg/mL] | MIC (VRE#2 (2010A)) [µg/mL] | MIC (S. aureus (ATCC29213); ATCC29213, read-out: Antimicrobial activity (MIC) S. aureus ATCC29213) [µg/mL]
COCCN1CCC(NCCNC(=O)c2c(-c3cc4cc(Cl)ccc4[nH]3)[nH]c3cc(Br)ccc23)CC1 [Compound 124, 6-Bromo-5′-chloro-N-(2-((1-(2-methoxyethyl)piperidin-4-yl)amino)ethyl)-1H,1′H-[2,2′-biindole]-3-carboxamide] | 16 (≈ 27.9 µM) | 8 (≈ 14 µM) | 8 (≈ 14 µM) | < 100 | 8 (≈ 14 µM) | – | – | – | –
COc1cc2[nH]c(-c3[nH]c4cc(Br)ccc4c3C(=O)C(F)(F)F)cc2cc1Cl [Compound 200, 1-(6-Bromo-5′-chloro-6′-methoxy-1H, 1′H-[2,2′-biindol]-3-yl)-2,2,2-trifluoroethan-1-one] | > 64 | 1 (≈ 2.12 µM) | 1 (≈ 2.12 µM) | < 100 | 4 (≈ 8.48 µM) | – | – | – | –
CNCCNC(=O)c1c(-c2cc3cc(Cl)ccc3[nH]2)[nH]c2cc(Br)ccc12 [Compound 136, 6-Bromo-5′-chloro-N-(2-(methylamino)ethyl)-1H,1′H-[2,2′-biindole]-3-carboxamide] | 16 (≈ 35.9 µM) | 8 (≈ 17.9 µM) | 8 (≈ 17.9 µM) | < 100 | 8 (≈ 17.9 µM) | – | – | – | –
O=C(Nc1nc2cc(Br)ccc2s1)NC1CCCCCC1 [Compound 174, 1-(5-bromobenzo[d]thiazol-2-yl)-3-cycloheptylurea] | > 64 | 1 (≈ 2.72 µM) | 1 (≈ 2.72 µM) | – | 1 (≈ 2.72 µM) | – | – | – | –
CC(C)(C)NC(=O)Nc1nc2cc(Br)ccc2s1 [Compound 173, 1-(5-bromobenzo[d]thiazol-2-yl)-3-(tert-butyl)urea] | > 64 | 16 (≈ 48.7 µM) | 32 (≈ 97.5 µM) | – | 16 (≈ 48.7 µM) | – | – | – | –
NC(=O)N1CCCN(CCNC(=O)c2c(-c3cc4cc(Cl)ccc4[nH]3)[nH]c3cc(Br)ccc23)CC1 [Compound 128, 6-bromo-N-(2-(4-carbamoyl-1,4-diazepan-1-yl)ethyl)-5′-chloro-1H,1′H-2,2′-biindole-3-carboxamide] | > 64 | – | > 64 | – | > 64 | – | – | – | –
O=C(Nc1ccc(Cl)cc1)Nc1nc2cc(F)ccc2s1 [Compound 166, 1-(4-chlorophenyl)-3-(5-fluorobenzo[d]thiazol-2-yl)urea] | > 64 | 0.5 (≈ 1.55 µM) | 0.5 (≈ 1.55 µM) | – | 1 (≈ 3.11 µM) | – | – | – | –
O=C(Nc1ccc(Cl)cc1)Nc1nc2cc(Cl)ccc2s1 [Compound 172, 1-(5-chlorobenzo[d]thiazol-2-yl)-3-(4-chlorophenyl)urea] | > 64 | 0.5 (≈ 1.48 µM) | 1 (≈ 2.96 µM) | – | 0.5 (≈ 1.48 µM) | – | – | – | –
O=C(Nc1ccc(Cl)cc1)Nc1nc2cc(Oc3ccccc3)ccc2s1 [Compound 168, 1-(4-chlorophenyl)-3-(5-phenoxybenzo[d]thiazol-2-yl)urea] | > 64 | 1 (≈ 2.53 µM) | 16 (≈ 40.4 µM) | – | 1 (≈ 2.53 µM) | – | – | – | –
CN(C)CC(=O)OCCCNC(=O)c1c(-c2cc3cc(Cl)ccc3[nH]2)[nH]c2cc(Br)ccc12 [Compound 184, 3-(6-Bromo-5′-chloro-1H, 1′H-[2,2′-biindole]-3-carboxamido)propyl Dimethylglycinate] | > 64 | 16 (≈ 30.1 µM) | > 64 | < 100 | > 64 | – | – | – | –
C[n+]1cccc(CNC(=O)c2c(-c3cc4cc(Cl)ccc4[nH]3)[nH]c3cc(Br)ccc23)c1 [Compound 148, 3-((6-bromo-5′-chloro-1H,1′H-[2,2′-biindole]-3-carboxamido)methyl)-1-methylpyridin-1-ium] | > 64 | 16 | 16 | < 100 | 8 | – | – | – | –
CCNC(=O)Nc1nc2cc(Br)ccc2s1 [Compound 176, 1-(5-bromobenzo[d]thiazol-2-yl)-3-ethylurea] | > 64 | 8 (≈ 26.7 µM) | 16 (≈ 53.3 µM) | – | 8 (≈ 26.7 µM) | – | – | – | –
C[N+](C)(C)CCCNC(=O)COc1cc2[nH]c(-c3cc4ccc(Br)cc4[nH]3)cc2cc1Cl [Compound 191, 3-(2-((6′-Bromo-5-chloro-1H,1′H-[2,2′-biindol]-6-yl)oxy)acetamido)-N,N,N-trimethylpropan-1-aminium Formate] | – | – | – | < 100 | – | > 64 | 16 | 16 | 16
C[N+](C)(CCO/N=C(/c1c(-c2cc3cc(Cl)ccc3[nH]2)[nH]c2cc(Br)ccc12)C(F)(F)F)CC(=O)[O-] [Compound 223, 2-((2-(((1-(6-Bromo-5′-chloro-1H,1′H-[2,2′-biindol]-3-yl)-2,2,2-trifluoroethylidene)amino)oxy)ethyl)dimethylammonio)acetate] | > 64 | 8 (≈ 13.7 µM) | 8 (≈ 13.7 µM) | 100 to 1000 | 16 (≈ 27.3 µM) | – | – | – | –
CC(C)(C)NCCNC(=O)c1c(-c2cc3cc(Cl)ccc3[nH]2)[nH]c2cc(Br)ccc12 [Compound 138, 6-Bromo-N-(2-(tert-butylamino)ethyl)-5′-chloro-1H,1′H-[2,2′-biindole]-3-carboxamide] | 64 (≈ 131 µM) | 8 (≈ 16.4 µM) | 4 (≈ 8.2 µM) | < 100 | 4 (≈ 8.2 µM) | – | – | – | –
CN(C)CC(=O)OCCOc1cc2[nH]c(-c3cc4ccc(Br)cc4[nH]3)cc2cc1Cl [Compound 197, 2-((6′-Bromo-5-chloro-1H,1′H-[2,2′-biindol]-6-yl)oxy)ethyl Dimethylglycinate] | > 64 | 8 (≈ 16.3 µM) | 8 (≈ 16.3 µM) | < 100 | 8 (≈ 16.3 µM) | – | – | – | –
CN(C)CC(=O)Nc1ccc(NC(=O)Nc2nc3cc(Br)ccc3s2)cc1 [Compound 161, N-(4-(3-(5-bromobenzo[d]thiazol-2-yl)ureido)phenyl)-2-(dimethylamino)acetamide] | > 64 | 8 (≈ 17.8 µM) | 16 (≈ 35.7 µM) | – | 16 (≈ 35.7 µM) | – | – | – | –
O=C(Nc1nc2cc(Br)ccc2s1)NC1CCCCC1 [Compound 159, 1-(5-bromobenzo[d]thiazol-2-yl)-3-cyclohexylurea] | > 64 | 1 (≈ 2.82 µM) | – | – | 2 (≈ 5.65 µM) | – | – | – | –
C[n+]1ccccc1CCNC(=O)c1c(-c2cc3cc(Cl)ccc3[nH]2)[nH]c2cc(Br)ccc12 [Compound 150] | > 64 | 16 | 32 | < 100 | 16 | – | – | – | –
O=C(Nc1ccc(Cl)cc1)Nc1nc2cc(C(F)(F)F)ccc2s1 [Compound 169, 1-(4-chlorophenyl)-3-(5-(trifluoromethyl)benzo[d]thiazol-2-yl)urea] | > 64 | 0.5 (≈ 1.34 µM) | 2 (≈ 5.38 µM) | – | 1 (≈ 2.69 µM) | – | – | – | –
CC(C)(C)NCCNC(=O)COc1cc2[nH]c(-c3cc4ccc(Br)cc4[nH]3)cc2cc1Cl [Compound 193, 2-((6′-Bromo-5-chloro-1H,1′H-[2,2′-biindol]-6-yl)oxy)-N-(2-(tert-butylamino)ethyl)acetamide] | > 64 | – | – | < 100 | > 64 | – | – | – | –
Nc1ccc(NC(=O)Nc2nc3cc(Br)ccc3s2)cc1 [Compound 160, 1-(4-aminophenyl)-3-(5-bromobenzo[d]thiazol-2-yl)urea] | > 64 | 4 (≈ 11 µM) | 8 (≈ 22 µM) | – | 4 (≈ 11 µM) | – | – | – | –
